Each structure is given as a SMILES string.

A short description of this data set: Human HepG2 cell viability assay in 384 well format. On the set-up: dose 125 nL, time 70.5 hour; cytotoxicity at 70.5 h: concentration not given beside the values. To be noted: HepG2 cells, read-out: Inhibition. Format: toxicity, cell-based.
As to `Cc1nc(N2CCC(C(O)c3nccn3C)CC2)c2cccnc2n1` (centres undefined), the cytotoxicity at 70.5 h came out at 18.9%. As for `Cc1nc(C)n(CC2CCCN2Cc2cccc3c2OCCO3)n1` (centres undefined), the cytotoxicity at 70.5 h is -5.55%. Under `CCCc1nc(NCCCOCC)c2c(n1)c(C)nn2CC` stands -18.2%. With `CCc1cn[nH]c1C1CCCN(C(=O)c2ncoc2C(C)C)C1` (centres undefined) the figure was -2.87%; with `Cc1csc(C2CCCN(C(=O)c3cc(Cl)c[nH]3)C2)n1` (centres undefined), -0.903%; with `CCN1CCCC(c2c(-c3ccccc3)ncn2CCCO)C1` (centres undefined), -8.57%. Under `Cc1csc(N2CCCN(CCC(=O)NC(N)=O)CC2)n1` stands -1.42%.

Turning to `CCCc1nc(C)c(CN2CC3(CCOC3)CCC2=O)s1` (centres undefined), the cytotoxicity at 70.5 h was -8.32%.

Consider `O=C(Nc1nc2c(s1)CNCC2)C1CC1`, for which the cytotoxicity at 70.5 h turned out to be 26.7%.

In the case of `Cc1cccc(CN2CCn3c(C(=O)N(C)C)cnc3C2)c1`, the cytotoxicity at 70.5 h is -4.36%. Under `Cc1cccc(NC(=O)N2Cc3c(CN(C)C)nn(C)c3C2)c1` stands -3.74%; under `Cc1noc(C)c1CNS(=O)(=O)N(C)Cc1ccc(Cl)cc1`, -5.95%; under `CC(=O)N1CCN(C(=O)c2ccc(Sc3ccccn3)cc2)CC1`, -14%. With `COc1cccc(CN2C[C@@H]3CC[C@@](O)(c4ccccn4)[C@@H]3C2)c1OC` the figure was 12.8%; with `CN1CCN(Cc2cccnc2)C2(CCN(Cc3ccoc3)C2)C1=O` (centres undefined), 20.4%; with `O=C(NCC1CC1)c1nc2c(o1)CN(CC1CC1)C2`, -6.5%. With `Cc1cccc(C(=O)N2CCCN(Cc3cscn3)CC2)c1` the figure was -4.03%. `Cc1cnc(CN(Cc2ccc(Cl)s2)C2CCN(C)C2)o1` (centres undefined): the cytotoxicity at 70.5 h was -9.93%.

On to `C[C@@H]1CN(C(=O)c2cccn2C)C[C@]12CCN(c1ccsc1)C2=O`, for which the cytotoxicity at 70.5 h was -13.8%. Under `Cc1nn(C)c(C)c1CN1CCCC(c2ccc(C(=O)O)cc2)C1` (centres undefined) stands -3.35%; under `COCc1nc(N2CCC(CCO)CC2)c2cnn(C)c2n1`, 2.73%; under `O=C(NCCc1cc(F)ccc1F)NCC(O)C1CC1` (centres undefined), 11.6%.

On to `CC(C)N(C)C(=O)C1CCN(Cc2cnc3ccccn23)CC1`, for which the cytotoxicity at 70.5 h is -5.16%. Under `Cn1cc(-c2nc(CN3CCN(c4nccs4)CC3)cs2)cn1` stands -5.83%; under `Cc1ccc(-c2cnnc(NCC3CCOCC3)n2)o1`, 28.5%; under `Cc1cc(C(=O)N2CCCC2c2nnc3n2CCCCC3)on1` (centres undefined), -2.64%. Under `CC(C)c1nc(CN(C)C(=O)c2cn3ccsc3n2)cs1` stands 2.2%; under `Cc1c(NC(=O)C(C)N(C)C)c(=O)n(-c2ccccc2)n1C` (centres undefined), -1.07%; under `COc1ccc(OC)c(Nc2nc3c(C)nn(C)c3c(=O)n2C)c1`, 7.63%.

Consider `CCn1c(Cn2cncn2)nnc1C1CCN(Cc2cccnc2)CC1`, for which the cytotoxicity at 70.5 h stood at 9.57%.

`Cc1ccc2c(c1)C1(CCNCC1)CC2NC(C)C` (centres undefined): the cytotoxicity at 70.5 h was -2.54%. With `O=C(NC1CCC1)[C@@H]1C[C@@H]2CCN(Cc3cccs3)C[C@@H]2O1` the figure was 7.52%; with `O=C(O)c1ccnc(SCC(=O)c2ccccc2)c1`, 14.5%; with `Cc1cc(C(=O)N2CCN(Cc3ccco3)C(CCO)C2)cc(=O)[nH]1` (centres undefined), 21.1%. On to `Cc1cnc(C(=O)N2CCCC(Cn3cc(CC(C)C)nn3)C2)cn1` (centres undefined), for which the cytotoxicity at 70.5 h is -8.09%. Under `NC(=O)c1ccc(C(=O)N2CCCCC2C2OCCO2)cc1` (centres undefined) stands -10.6%; under `Cc1ccc2oc(C(=O)N3CCC(C(=O)N4CCCC4)CC3)cc2n1`, -14.6%; under `CN(Cc1cccnc1)[C@@H]1CN(C(=O)NC2CC2)[C@@H]2CCCO[C@H]12`, -6.43%. With `CC(C)N(Cc1nc2c(cnn2C)c(=O)[nH]1)c1ccccc1` the figure was 3.46%.

As for `O=C(C1CCOC1)N1C[C@H]2CN(Cc3ccccn3)C[C@H]2C1` (some centres undefined), the cytotoxicity at 70.5 h is -18%. With `Cc1nn(C)c2c(=O)n(CC(=O)NCc3ccccc3Cl)ccc12` the figure was 8.11%; with `Cc1nn(C)c2cnn(CC(=O)NCc3cccs3)c12`, -8.64%; with `CCN1C[C@H]2C3(CCN(C(C)=O)CC3)CC[C@@]2(C(=O)N(C)C)C1`, -8.84%.

In the case of `CCOCCc1nc(CCc2ccccc2)n[nH]1`, the cytotoxicity at 70.5 h was -6.03%. With `CNC(=O)CN1CC[C@H]2CN(C(=O)c3cc[nH]n3)C[C@H]2C1` the figure was -8.85%.

Turning to `CCn1nc(C)c(S(=O)(=O)N(C)c2ccc(Cl)cn2)c1C`, the cytotoxicity at 70.5 h amounted to 12%. Consider `CN1CCCC(c2ccnc(C(=O)NCC3CC3)c2)C1` (centres undefined), for which the cytotoxicity at 70.5 h is -2.35%. For the compound `CCOCCCNC(=O)C1CCC(=O)N(CCc2ccc(Cl)cc2)C1` (centres undefined), the cytotoxicity at 70.5 h was -7.25%. With `Cc1ccc(N2C[C@@H]3CN(Cc4ccsc4)CCO[C@@H]3C2)nn1` the figure was -11.5%; with `CN(Cc1cncnc1)[C@@H]1CN(Cc2ccco2)C[C@@H]2CCCO[C@@H]21`, -14.6%. Regarding `CCc1nc(N)sc1C(=O)N1CCCC(COc2cccc(C)c2)C1` (centres undefined), the cytotoxicity at 70.5 h is -0.442%. With `COc1ccc(CN[C@@H]2CO[C@H](CNC(=O)N3CCOCC3)[C@H]2O)cc1` the figure was 2.1%; with `Cn1cnc(S(=O)(=O)N2CCCc3c(F)cc(F)cc32)c1Cl`, 22.3%. With `CN(C1CCCN(c2ccccn2)C1)S(C)(=O)=O` (centres undefined) the figure was -3.73%; with `CCN(Cc1nc(C)no1)C(=O)C1CC(=O)N(Cc2ccccn2)C1` (centres undefined), -13.9%. Under `O=C1CC[C@H](C(=O)N(CCc2ccccc2)C2CCOC2)N1` (some centres undefined) stands 24.8%; under `CC1Oc2c(cccc2C(=O)N2CCCCCC2)NC1=O` (centres undefined), 29.3%; under `CCCc1cc(=O)[nH]c(SCc2ccccn2)n1`, -2.16%. As for `CC(=O)N1CCCN(C(=O)c2cnn(-c3ccccc3Cl)c2)CC1`, the cytotoxicity at 70.5 h is -17.1%. Under `CN1CCOC(CNC(=O)CCCOc2cccc(F)c2)C1` (centres undefined) stands 0.774%; under `Cn1ccc(C2CCCCCN2C(=O)c2cccnc2)n1` (centres undefined), -2.46%. On to `CCOC(=O)CNc1nc(C(C)(C)C)nc2c1cnn2C`, for which the cytotoxicity at 70.5 h is 1.33%.

In the case of `CCCN1CCCN(CCCOc2cccc(C#N)c2)CC1`, the cytotoxicity at 70.5 h was -1.9%. With `CNC(=O)C(C)CNC(=O)c1coc(COc2cccc(F)c2F)n1` (centres undefined) the figure was -14.8%; with `O=C(NC1CC1)c1cc(C2CCCN(Cc3ccccn3)C2)no1` (centres undefined), -13.3%; with `O=c1c(NCCO)c(N2CCN(c3ccccc3)CC2)c1=O`, -4.94%. With `CC(O)CN1CCN(C(=O)CN(C)c2ccc(Cl)cn2)CC1` (centres undefined) the figure was -12.2%; with `c1cc2nc(C3CCNCC3)nn2cc1NC1CCC1`, 23.2%. Under `Cc1cc(C)c2c(N3CCN(Cc4ncccc4C)CC3)ncnc2n1` stands -8.35%. Turning to `c1cnnc(N2CCCC(NCc3nc(-c4ccco4)no3)C2)c1` (centres undefined), the cytotoxicity at 70.5 h stood at 46.2%. `Fc1cccc(CN2CCC3(CCCN3c3ncccn3)CC2)c1`: the cytotoxicity at 70.5 h was determined as 5.31%. With `Cc1cn2c(n1)CCC(NC(=O)c1cnc(C)nc1C(C)C)C2` (centres undefined), the cytotoxicity at 70.5 h was -9%. Under `COc1ccc2c(c1)C(C(=O)N(C)CCc1cnn(C)c1)CC(=O)N2` (centres undefined) stands -8.46%; under `Cc1ccc(C(C(=O)NCc2n[nH]c(N)n2)N(C)C)cc1` (centres undefined), -5.83%; under `CCCc1nc(CN2CCCC2Cn2cncn2)cs1` (centres undefined), 17.1%. In the case of `CC(=O)N1CCC2(CCN(C(=O)c3cccc(C(F)(F)F)c3)CC2)C1`, the cytotoxicity at 70.5 h was determined as 7.98%. Under `CN(C)c1cc(CNC(=O)c2ccc(=O)[nH]n2)ccn1` stands 1.83%. `O=C1[C@H]2CN(Cc3ccc(F)cc3)C[C@H]2CN1c1ccsc1`: the cytotoxicity at 70.5 h is -13.2%. With `Cc1ccc(C(CNCc2ccncc2)N2CCOCC2)s1` (centres undefined) the figure was 18.9%.

In the case of `CCc1nc(CN2CCCN(C(=O)CC(C)OC)CC2)cs1` (centres undefined), the cytotoxicity at 70.5 h worked out at 51.7%. Under `O=C1CC(c2ccc(C(=O)O)cc2)c2ncn(-c3ccccc3Cl)c2N1` (centres undefined) stands -12.6%; under `CCc1noc(CN(CCC2CCCCC2)CC(N)=O)n1`, -14.6%; under `COc1ccc(C(=O)NCCN2CCC(c3cccs3)CC2)cc1OC`, 0.337%. Consider `O=C(CCCn1cncn1)N1CCC2(CCCNC2=O)C1` (centres undefined), for which the cytotoxicity at 70.5 h was found to be 0.299%. With `O=C(O)C1(Cc2cc(-c3ccc(F)cc3)no2)CCOCC1` the figure was 8.42%; with `O=C(Cc1ccc(Br)s1)NCC(=O)Nc1cn[nH]c1`, -9.18%. Under `Cc1cc(F)c(S(=O)(=O)NCc2ccnc(N(C)C)n2)cc1F` stands 29.1%. With `Cc1cc(CN2CCN(Cc3cc(C#N)ccc3F)CC2)no1` the figure was 0.144%. `C/C(NC(=O)c1cccs1)=C1\C(=O)C[C@@H]2[C@H]1C2(C)C`: the cytotoxicity at 70.5 h was -10%.

On to `CC(C)NC(=O)CN1CCC(c2cccc(F)c2)C1` (centres undefined), for which the cytotoxicity at 70.5 h came out at 22.8%. With `COC(=O)c1ccc(CN2CCC(c3noc(C)n3)CC2)s1` the figure was -8.54%; with `Cc1cccc2c1cnn2CCCNC(=O)c1cnn(C)c1`, -2.01%; with `COCCN1CCCC(c2ncc(C(=O)N3CCOCC3)c(C)n2)C1` (centres undefined), 1.77%. With `CC(=O)NC1CCN(c2ncnc3c2c(C)nn3C)C1` (centres undefined) the figure was -7.17%. Under `CCc1noc(-c2ccc(SCC(=O)O)nc2)n1` stands 13.8%; under `CC1(C)CNC(=O)c2nc(-c3ccccc3)[nH]c2C1`, 14.6%.

For `c1cc(CN2CCC(c3ccncc3)CC2)cc(Cn2cccn2)c1`, the cytotoxicity at 70.5 h is -1.99%.

Take `COc1cc(CN(C)CCc2ccncc2)c(SC)cc1OC`: the cytotoxicity at 70.5 h was -7.73%. In the case of `CCN(Cc1ccncc1)CC1(O)CCN(C(=O)c2cccc(C)c2)C1` (centres undefined), the cytotoxicity at 70.5 h was -4.75%.
